Data as given in article PMC10792220 (Journal of Applied Glycoscience, 2023).

Experiments:
AxyC = target: T1, AxyC (Aspergillus oryzae, UniProt A0ABQ6KV83); test: absorbance of released p-nitrophenol at […] nm; type: biochemical; details: read-out: Relative activity (%) at 40 mM
T1 sequence (A0ABQ6KV83 1-654): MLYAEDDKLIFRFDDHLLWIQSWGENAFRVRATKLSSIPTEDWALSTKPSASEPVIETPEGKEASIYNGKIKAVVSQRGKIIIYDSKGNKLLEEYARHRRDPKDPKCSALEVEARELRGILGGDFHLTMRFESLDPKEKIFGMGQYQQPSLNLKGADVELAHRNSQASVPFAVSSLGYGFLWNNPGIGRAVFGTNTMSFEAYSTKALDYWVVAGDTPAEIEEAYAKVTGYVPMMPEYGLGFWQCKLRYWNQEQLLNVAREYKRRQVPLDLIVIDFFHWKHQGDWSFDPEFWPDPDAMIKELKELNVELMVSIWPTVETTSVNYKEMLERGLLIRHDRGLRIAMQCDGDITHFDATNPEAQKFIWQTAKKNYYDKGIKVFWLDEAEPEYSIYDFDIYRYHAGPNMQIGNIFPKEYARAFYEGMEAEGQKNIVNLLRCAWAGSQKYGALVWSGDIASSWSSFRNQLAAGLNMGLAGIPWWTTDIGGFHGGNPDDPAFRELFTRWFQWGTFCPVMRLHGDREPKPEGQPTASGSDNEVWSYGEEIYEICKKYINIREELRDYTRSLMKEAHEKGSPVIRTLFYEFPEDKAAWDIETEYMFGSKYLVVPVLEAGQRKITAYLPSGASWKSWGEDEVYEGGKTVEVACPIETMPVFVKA

[1] = target: Aspergillus oryzae α-xylosidase AxyC, His6-tagged (Aspergillus oryzae); test: SEC

Row | Molecule | activity at 40000 µM (AxyC) | stoichiometry N [1]
1 | OC1OC[C@@H](O)[C@H](O)[C@H]1O (stereo partly drawn) [D-xylose] | 84.8 ± 4.5% | –
2 | Aspergillus oryzae α-xylosidase AxyC, His6-tagged (enzyme) | – | 4
